{"source": "patent US20240076667A1", "about": "“APPLICATION OF ANTISENSE OLIGONUCLEOTIDE TARGETING PBX1 PROMOTER REGION G-QUADRUPLEX IN PREPARATION OF MEDICINE FOR TREATING MELANOMA” (JILIN UNIVERSITY, priority 2022, published 2024)", "key": {"[1]": {"test_system": "PBX1", "assay": "PBX1 mRNA and protein levels by qRT-PCR and western blot in B16-F10 cells", "type": "cell-based, mouse", "experimental": "(§1) RNA extraction and quantitative RT-PCR detection: total RNA is extracted from cultured cells by using TRIzol (Invitrogen, USA), then is converted into cDNA by SuperScript III First-Strand Synthesis SuperMix (Invitrogen, USA). qRT-PCR detection is performed by using SYBR Green®Mix (Invitrogen, USA) in ABI 7500 (Invitrogen, USA). A relative expression quantity of RNA is calculated by using a comparative CT method.\n(§2) Immunoblotting: for protein analysis of a whole-cell lysate, cells are lysed with RIPA (CWBIO, Beijing, China) buffer solution. For tumors, liquid nitrogen is first used to pulverize tissues. Then, the lysate is generated on ice with the RIPA (CWBIO, Beijing, China) buffer solution for 20 minutes, and then centrifuged at 4° C., 13000 rpm for 15 minutes. Protein-containing supernatant is transferred to the fresh microcentrifuge tube, and stored at −20° C. (short-term storage) for subsequent use. The protein is quantified by using the BIO-RAD DC protein assay. The total proteins are electrophoresed on SDS-polyacrylamide gels. Then, the proteins are transferred to polyvinylidene difluoride (PVDF) membrane. After incubation with the primary antibody overnight on the shaker at 4° C., the membrane is washed 6 times (5 minutes each time) with TBS-T (Invitrogen, USA). Then, blots are incubated with horseradish peroxidase (IRP)-conjugated secondary antibodies for 60 minutes at RT on the plate shaker. The membrane is cleaned by TBS-T (6×5 minutes). Detection on immunoreactive bands is performed by using SuperSignalmWest Pico chemiluminescence substrate kit (Thermo Fisher Scientific, USA) and Western blotting detection system (BioRad, USA). GAPDH is used as the loading control for western blotting. The intensity levels of the bands are normalized to GAPDH."}, "[2]": {"test_system": "B16-F10 cells", "assay": "In vivo tumor metastasis assay, B16-F10 tail vein injection", "set-up": "species or system mice", "settings": "in vivo studies, summary statement", "experimental": "In vivo tumor metastasis assay: 2×10^5 B16-F10 cells are injected into the tail vein of tail vein tumor. According to solutions formulated by the NCI Animal Care and Use Committee, metastatic endpoints are determined for each experiment by maximal primary tumor burden and/or appearance of moribund mice in all treatment groups. PDS (5 mg/kg) is administered twice a day, for 16 consecutive days.\nBioluminescent tumor cell tracking: in vivo whole-animal imaging, anesthetized mice are injected intraperitoneally with 3 mg of d-luciferin (MCE, USA). Luminescence data is collected on an IVIS system (Perkin Elmer, USA). For live tissue imaging, tissues are perfused with PBS, harvested, and incubated in PBS with 1 μg/ml-1d-luciferin. Data analysis is performed using an IVIS Image software package."}, "[3]": {"test_system": "melanoma cell line", "assay": "Proliferation, migration and invasion of the melanoma cell line (summary statement)", "type": "cell-based", "text": "The present invention detects the effect of PBX1-G4 on growth and lung metastasis of melanoma and discovers that the expression of PBX1 is positively correlated with the development of melanoma. The sequence of PBX1 is conserved in evolution and is same in mice and human beings. […] The identification of the present invention on the antisense oligonucleotide targeting the PBX1 promoter region G-quadruplex provides the new drug target and new treatment methods and ideas for development of the new generation of medicine for treating melanoma."}, "[4]": {"test_system": "PBX1", "assay": "PBX1 mRNA and protein levels by qRT-PCR and western blot in A375 cells", "type": "cell-based, human", "experimental": "as §1, §2"}, "[5]": {"test_system": "PDCs", "assay": "Colony forming assay, patient-derived tumor cells", "type": "cell-based, human", "experimental": "(§3) Colony forming assay: for the colony forming assay, A375 and B16-F10 cells are seeded on 6-well plates with the density of 500-1000 cells. After two weeks, staining is performed by using 1% crystal violet at room temperature, rinsing is performed with PBS and tap water, and the number of colonies is counted.\nPreparation of patient-derived tumor cells: tumor tissues of PDXs are used in basic RPMI1640 medium (Gibco, USA. Free-FBS medium). Patient-derived tumor cells (PDC) are prepared from cryopreserved xenograft fragments using the tumor isolation kit (Miltenyi Biotec, Germany), following the tumor treatment solution. PDCs are cultured as described by Bruna and Shanker et al. (6,7). PDCs are used for colony forming assays."}, "[6]": {"test_system": "patient-derived melanoma xenograft (PDX)", "assay": "PDX model of melanoma in NCG mice", "type": "in vivo", "experimental": "PDX model of melanoma: fresh tumor tissues are collected immediately after surgery, placed in RPMI 1640 medium containing penicillin/streptomycin (100 U/ml; 100 μg/ml), fungal zone (1 μg/ml) and Genta Mycin (50 μg/ml) (all from Gibco, USA) (4,5). According to the institutional review and the ethical guidelines for this study approved by the Ethics Committee of the Second Hospital of Jilin University, fresh tumor samples from patients suffering from melanoma are collected for transplantation with informed consent. The mice were kept and all procedures are performed under the approval and supervision of the Institutional Animal Care and Use Committee (IACUC) of the School of Public Health of Jilin University (Changchun, China). Necrotic tissues are excised before transplantation, and tumor tissues are minced to a size of 2×2×2 mm^3, and implanted subcutaneously in the flank of 6-week-old NCG male mice to generate first-generation (F1) PDX mice. Successfully transplanted tumor models are passaged and stored using standard methods. H&E staining is used to evaluate the morphology of patient tumor specimens and xenografts of established PDX models. Treatment with ASO Scr or ASO (intravenous injection, 20 mg/kg) is initiated when the tumor volume of the mice reached 220-280 mm^3. Tumor growth and body weight measurements are performed. Tumors are dissected at the end of treatment for further processing for RNA, protein and histological analysis.\nControl:mG*mT*mC*mC*mA*mC*mA*mA*mA*mC*mA*mC*mA*mA*mC*mT*mC* mC*mT*mG*). […] This example also establishes short-term cultures of patient-derived melanoma xenograft (PDX)-derived tumor cells (PDCs) (FIG. 5D). […] To further expand the analysis, this embodiment establishes the PDX model of melanoma, and […] is administered intravenously (intravenous injection) every two days for 21 days."}, "[7]": {"test_system": "PBX1 transcript", "assay": "BG4 RNA immunoprecipitation (RIP) followed by qRT-PCR in A375 cells", "type": "cell-based, human", "experimental": "FIGS. 2A-2G are features formed by dG1 and rG1 in vitro and in cells. In (FIG. 2A), Left: CD spectra of WT and Mut dG1, and Right: CD spectra of WT and Mut rG1. CD is circular dichroism. In (FIG. 2B), Left: gel mobility assay of WT and Mut dG1, and Right: gel mobility assay of WT and Mut rG1. In (FIG. 2C), under specified conditions, fluorescence-on assay of NMM in absence of presence of dG1 or rG1, and their G/A mutant. In (FIG. 2D), the occupancy of BG4 in the PBX1 promoter region is measured in A375 cells by BG4 chromatin immunoprecipitation (ChIP), followed by qRT-PCR. In (FIG. 2E), RNA immunoprecipitation (RIP) detection is performed to show the association between BG4 and the PBX1 transcript in A375 cells, followed by qRT-PCR. In (FIG. 2F), the occupancy of BG4 in the PBX1 promoter region is measured, by the BG4 chip, in A375 cells treated with or without PDS and TMPyP4, followed by qRT-PCR. […] SEM represents the standard error of mean. *P< 0.05, **P< 0.01***P< 0.001.\nIn this embodiment, several methods are further employed to verify the formation of dG1 and rG1. First, circular dichroism (CD) is used to examine the molar ellipticity of dG1 and rG1 sequences (33 nt) and mutants thereof, and the mutants are designed to eliminate G4 formation. […] N-methyl mesoporphyrin IX (NMN) is the well-known fluorescent G4-specific ligand that can be used for studies of G4 formation in vitro. Both dG1 and rG1 are found to enhance the fluorescence of N N (FIG. 2C). In addition, in this embodiment, chromatin immunoprecipitation (ChIP) and RNA immunoprecipitation (RIP) detection are performed in A375 cells using the well-known G4-specific antibody BG4. […] In summary, dG1 and rG1 can fold stable G4 structures in vitro and in cells. […] Therefore, the ability of these G4-specific ligands to interact with PBX1 G4s is investigated next.\nControl:mG*mT*mC*mC*mA*mC*mA*mA*mA*mC*mA*mC*mA*mA*mC*mT*mC* mC*mT*mG*). […] This example also establishes short-term cultures of patient-derived melanoma xenograft (PDX)-derived tumor cells (PDCs) (FIG. 5D). […]"}, "[8]": {"test_system": "A375 cells", "assay": "Colony forming assay, A375", "type": "cell-based, human", "experimental": "as §3"}, "[9]": {"settings": "western blot, normalized to GAPDH"}, "[10]": {"settings": "PDX, intravenous injection 20 mg/kg every two days for 21 days, vs PBX1 ASO scramble"}}}
{"substance": "ASO: ASO specific for the complementary sequence of rG1 in the 5′ UTR of PBX1: mG*mG*mG*G*T*mT*mG*mC*mG*mG*mG*mG*mT*mG*mA*G*G*G*T*mG* (antisense GGGGTTGCGGGGTGAGGGTG; chemistry not given here)", "values": [{"measurement": "mRNA level of PBX1", "setting": "[1]; qRT-PCR", "result": "effectively reduce"}, {"measurement": "protein level of PBX1", "setting": "[1]; [9]", "result": "effectively reduce"}, {"measurement": "lung metastasis of melanoma", "setting": "[2]", "result": "almost completely inhibits"}, {"measurement": "invasion capability of the melanoma cell line", "setting": "[3]", "result": "obviously inhibits"}, {"measurement": "migration capability of the melanoma cell line", "setting": "[3]", "result": "obviously inhibits"}, {"measurement": "proliferation capability of the melanoma cell line", "setting": "[3]", "result": "obviously inhibits"}, {"measurement": "mRNA level of PBX1", "setting": "[4]; qRT-PCR", "result": "effectively reduce"}, {"measurement": "protein level of PBX1", "setting": "[4]; [9]", "result": "effectively reduce"}, {"measurement": "colony formation ability", "setting": "[5]", "result": "decreases"}, {"measurement": "expression of proliferation marker Ki67 in tumors", "setting": "[6]; PDX", "result": "significant downregulation"}, {"measurement": "tumor growth", "setting": "[6]; [10]", "result": "significant reduction"}, {"measurement": "tumor weight", "setting": "[6]; [10]", "result": "significant reduction"}, {"measurement": "expression of PBX1 in tumors", "setting": "[6]; PDX, qRT-PCR and IHC staining", "result": "significant downregulation"}, {"measurement": "growth of melanoma", "setting": "[6]; in vivo studies, summary statement", "result": "almost completely inhibits"}, {"measurement": "PBX1 transcript pulled down by BG4", "setting": "[7]", "result": "increases"}, {"measurement": "colony formation", "setting": "[8]", "result": "decreases"}]}
